From publication PMC2074590 (British Journal of Cancer, 1996)
Entries after “also recorded” stand apart in the source; their conditions may differ. Where two headings read alike, the source gives them in different places.

Experiments:
[1] = Serum concentrations of ICI 182780 by radioimmunoassay (pharmacokinetics of monthly i.m. depot); assay type: in vivo, human;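 for AUC on entry: AUC over the first monthly dosing interval after the first injection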
Method: Bridsh Journal of Cancer (1996) 74, 300-308 ? […] The agent was administered as a monthly depot intramuscular injection. […] The study was approved by the ethics committees of each clinical centre. Patients were eligible for the study if they were post- menopausal and age less than 81 years, with histologically verified breast cancer. […] Patients were excluded if they had serious intercurrent disease, a WHO performance status of greater than 2, and a life expectancy of less than 3 months or had received previous cytotoxic chemotherapy for advanced breast cancer. […] Patients 5-19 received 250 mg month-1 i.m. from the outset. […] Tumour response to therapy was evaluated according to UICC criteria (Hayward et al., 1977). To qualify for the 'no change' category, tumour growth had to stabilise for more than 6 months (Howell et al., 1988; Robertson et al., 1989). Body weight was recorded at each monthly review in the majority of patients. […] The procedure was applied after solid base clean up of a diethyl ether/hexane extract of serum. The study limit of quantification was 0.68 ng ml-'. […] Gonadotrophins follicle-stimulating hormone and lutenising hormone (FSH and LH) and SHBG were measured by RIA in the Regional Radioimmunoassay Laboratory of the University Hospital of South Manchester. Prolactin was measured by immunoradiometric assay using reagents supplied by Netria. Total cholesterol levels were determined enzymatically using a commercially available reagent (Diamed, Switzerland). Triglyceride levels were determined by the glyceryl phosphate oxidase-peroxidase-antiperox- idase method using a commercially available kit (Boehringer Mannheim, Germany). High-density lipoprotein (HDL) cholesterol levels were measured after pretreatment of the serum samples with buffered magnesium phosphotungstate, which selectively precipitates low-density lipoprotein (LDL) cholesterol, very low-density lipoprotein (VLDL) cholesterol and chylomicrons, leaving HDL cholesterol in the super- natant. Serum levels of LDL cholesterol were calculated using the Friedewald equation (Friedewald et al., 1972). Endometrial assessment Endometrial thickness was measured in transverse section by transabdominal ultrasound using a Siemens Sonoline SL2 with a 3.5 MHz sector probe. Baseline and repeat scans at 3-6 monthly intervals were performed in five patients. […] Pharmacokinectic data were analysed using para- metric statistics. Data relating to body weight, serum gonadotrophin, SHBG and lipid levels were analysed using non-parametric statistics. The null hypothesis was rejected at a probability level of P<0.05. […] However, samples were not available between day 2 and day 8.

[2] = system: total cholesterol, LDL cholesterol, HDL cholesterol, triglyceride; test: Serum lipid levels during treatment; assay type: in vivo, human; conditions: 12 patients
Method: (§1) Bridsh Journal of Cancer (1996) 74, 300-308 ? […] The agent was administered as a monthly depot intramuscular injection. […] The study was approved by the ethics committees of each clinical centre. Patients were eligible for the study if they were post- menopausal and age less than 81 years, with histologically verified breast cancer. […] Patients were excluded if they had serious intercurrent disease, a WHO performance status of greater than 2, and a life expectancy of less than 3 months or had received previous cytotoxic chemotherapy for advanced breast cancer. […] Patients 5-19 received 250 mg month-1 i.m. from the outset. […] Tumour response to therapy was evaluated according to UICC criteria (Hayward et al., 1977). […] Body weight was recorded at each monthly review in the majority of patients. […] The study limit of quantification was 0.68 ng ml-'. […] Gonadotrophins follicle-stimulating hormone and lutenising hormone (FSH and LH) and SHBG were measured by RIA in the Regional Radioimmunoassay Laboratory of the University Hospital of South Manchester. Prolactin was measured by immunoradiometric assay using reagents supplied by Netria. Total cholesterol levels were determined enzymatically using a commercially available reagent (Diamed, Switzerland). […] Serum levels of LDL cholesterol were calculated using the Friedewald equation (Friedewald et al., 1972). […]

endometrium = test: Endometrial assessment (transabdominal ultrasound thickness, histology); assay type: in vivo, human
Method: as §1

[3] = system: Ki67, ER, PgR, pS2 in primary breast cancer; conditions: short-acting propylene glycol-based formulation, daily i.m. for 1 week before surgery, ref DeFriend et al., 1994b, Nicholson et al.; cited from earlier work
ER = system: ER; parameters: method as in Wakeling et al., 1991; conditions: ref Wakeling et al., 1991; cited from earlier work
[4] = system: endometrial proliferation; parameters: method as in Dukes et al., 1993; conditions: primates, at serum concentrations similar to the present study; ref Dukes et al., 1993; cited from earlier work
[5] = system: endometrial proliferation; parameters: method as in Thomas et al., 1993; conditions: short-term studies in women, at serum concentrations similar to the present study; ref Thomas et al., 1993; cited from earlier work
[6] = patient 5 (partial response), 250 mg
[7] = patient 8 (partial response), 250 mg
[8] = patient 10 (partial response), 250 mg
[9] = patient 13 (progressive disease), 250 mg
[10] = patient 14 (partial response), 250 mg
[11] = patient 16 (partial response), 250 mg

Cmax ([1]; human, serum, intramuscular, 250 mg, patient 19 (no change), 250 mg, read-out: Cmax on entry): 11 ng/mL
Difference in median Cmax and AUC between responders and non-responders ([1]; in vivo): no significant difference
Increase in AUC on multiple dosing ([1]; month 6 vs month 1, 250 mg): 1.5 fold
Increase in Cmax on multiple dosing ([1]; month 6 vs month 1, 250 mg): 1.2 fold
Median AUC at month 6 ([1]; no change patients): 190.9 ng·days/mL
Median AUC on entry ([1]; no change patients): 131.6 ng·days/mL
Median AUC at month 6 ([1]; partial response patients): 191.0 ng·days/mL
Median AUC on entry ([1]; partial response patients): 118.7 ng·days/mL
AUC at month 6 ([1]; patient 2 (no change), 250 mg): 135.8 ng·days/mL
AUC at month 6 ([1]; patient 3 (partial response), 250 mg): 139.5 ng·days/mL
AUC at month 6 [1, 6]: 203.0 ng·days/mL
AUC on entry [1, 6]: 188.4 ng·days/mL
AUC on entry ([1]; patient 6 (partial response), 250 mg): 118.3 ng·days/mL
AUC on entry ([1]; patient 7 (progressive disease), 250 mg): 105.7 ng·days/mL
AUC at month 6 [1, 7]: 175.2 ng·days/mL
AUC on entry [1, 7]: 118.7 ng·days/mL
AUC on entry ([1]; patient 9 (progressive disease), 250 mg): 138.2 ng·days/mL
AUC at month 6 [1, 8]: 191.7 ng·days/mL
AUC on entry [1, 8]: 206.6 ng·days/mL
AUC on entry ([1]; patient 11 (progressive disease), 250 mg): 289.3 ng·days/mL
AUC at month 6 ([1]; patient 12 (no change), 250 mg): 179.3 ng·days/mL
AUC on entry ([1]; patient 12 (no change), 250 mg): 143.6 ng·days/mL
AUC at month 6 [1, 9]: 243.7 ng·days/mL
AUC on entry [1, 9]: 36.7 ng·days/mL
AUC at month 6 [1, 10]: 266.0 ng·days/mL
AUC on entry [1, 10]: 134.6 ng·days/mL
AUC at month 6 ([1]; patient 15 (no change), 250 mg): 201.7 ng·days/mL
AUC on entry ([1]; patient 15 (no change), 250 mg): 107.8 ng·days/mL
AUC at month 6 [1, 11]: 190.8 ng·days/mL
AUC on entry [1, 11]: 72.8 ng·days/mL
AUC at month 6 ([1]; patient 17 (no change), 250 mg): 297.6 ng·days/mL
AUC on entry ([1]; patient 17 (no change), 250 mg): 125.5 ng·days/mL
AUC at month 6 ([1]; patient 18 (no change), 250 mg): 156.1 ng·days/mL
AUC on entry ([1]; patient 18 (no change), 250 mg): 183.2 ng·days/mL
AUC at month 6 ([1]; patient 19 (no change), 250 mg): 308.0 ng·days/mL
AUC on entry ([1]; patient 19 (no change), 250 mg): 137.8 ng·days/mL
Median AUC on entry ([1]; progressive disease patients): 79.4 ng·days/mL
SMILES: C[C@]12CC[C@@H]3c4ccc(O)cc4C[C@@H](CCCCCCCCC[S+]([O-])CCCC(F)(F)C(F)(F)F)[C@H]3[C@@H]1CC[C@@H]2O (stereo partly shown) [ICI 182780, 7a-[9(4,4,5,5,pentafluoropentyl-sulphinyl)nonyl]oestra-1 ,3,5,(10)-triene-3,17,B-diol]
Serum level at day 28 relative to threshold ([1]; monthly depot i.m., day 28): above the projected therapeutic threshold
Change in serum lipids (total cholesterol, LDL cholesterol, HDL cholesterol, triglyceride) [2]: no significant changes
Endometrial histology (endometrium; one patient, hysterectomy after 18 months on treatment): atrophic post-menopausal pattern with cystic change
Endometrial thickness / effect on endometrium (endometrium; serial ultrasound in five responding patients, up to 15 months): no apparent effect; also recorded: remained unchanged
Expression of ER, PgR and pS2 vs pretreatment samples [3]: reduced or absent expression
Tumour proliferation (Ki67 expression) vs pretreatment samples [3]: reduced proliferation
Potency and affinity for the ER relative to ICI 164384 (ER): greater potency and affinity for the ER
Effect on endometrial proliferation [4]: inhibited endometrial proliferation
Effect on endometrial proliferation [5]: inhibited endometrial proliferation
